Assay results taken from patent US9316913B2, “Underlayer film-forming material for lithography, underlayer film for lithography, and pattern formation method” (MITSUBISHI GAS CHEMICAL COMPANY, INC., priority 2011, dated 2016).

Tests used:
Pyrolysis temperature = type: physicochemical; settings: thermogravimetric measurement (TG); nitrogen stream, 10° C./min
Method: An EXSTAR 6000 DSC apparatus manufactured by SII NanoTechnology Inc. was used, and about 5 mg of a sample was placed in an unsealed aluminum container and heated to 500° C. at a rate of temperature rise of 10° C./min in a nitrogen gas (30 ml/min) stream. In this time, a temperature at which a reducing portion appeared on the base line was defined as a pyrolysis temperature (Tg).

[1] = Solubility in PGME and PGMEA; type: physicochemical; settings: 23° C.
Method: Herein, the solubility in PGME or PGMEA is defined as “Mass of resin/(Mass of resin+Mass of solvent)×100 (% by mass)”.
The amount of each compound dissolved in 1-methoxy-2-propanol (PGME) and propylene glycol monomethyl ether acetate (PGMEA) was measured at 23° C., and the results were evaluated according to the following criteria.
Evaluation A: 10% by weight or more
Evaluation B: 3% by weight or more and less than 10% by weight
Evaluation C: less than 3% by weight

Row | SMILES | pyrolysis temperature (Pyrolysis temperature) | solubility in PGME and PGMEA ([1]; 1-methoxy-2-propanol (PGME) and propylene glycol monomethyl ether acetate (PGMEA)) | solubility in PGME and PGMEA (Evaluation) [1]
1 | Oc1cccc2c3c(ccc12)C(c1ccc(-c2ccccc2)cc1)c1ccc2c(O)cccc2c1O3 [BisN-3] | 410 °C | – | B (3% by weight or more and less than 10% by weight)
2 | Oc1ccc2c3c(ccc2c1)Oc1ccc2cc(O)ccc2c1C3c1ccc(-c2ccc(C3c4c(ccc5cc(O)ccc45)Oc4ccc5cc(O)ccc5c43)cc2)cc1 [BisN-13] | 410 °C | – | B (3% by weight or more and less than 10% by weight)
3 | Oc1ccc2c3c(ccc2c1)Oc1ccc2cc(O)ccc2c1C3c1ccc2ccc3cccc4ccc1c2c34 [BisN-9] | 420 °C | – | B (3% by weight or more and less than 10% by weight)
4 | Oc1cc2ccccc2c2c1Oc1c(O)cc3ccccc3c1C2c1ccc(-c2ccccc2)cc1 [BisN-6] | 410 °C | – | B (3% by weight or more and less than 10% by weight)
5 | Oc1ccc2c3c(ccc2c1)Oc1ccc2cc(O)ccc2c1C3c1ccc(C2c3c(ccc4cc(O)ccc34)Oc3ccc4cc(O)ccc4c32)cc1 [BisN-12] | 410 °C | – | B (3% by weight or more and less than 10% by weight)
6 | Oc1ccc2c3c(ccc2c1)Oc1ccc2cc(O)ccc2c1C3c1cc(C2c3c(ccc4cc(O)ccc34)Oc3ccc4cc(O)ccc4c32)cc(C2c3c(ccc4cc(O)ccc34)Oc3ccc4cc(O)ccc4c32)c1 [BisN-14] | 410 °C | – | B (3% by weight or more and less than 10% by weight)
7 | Oc1cccc2c3c(ccc12)Oc1ccc2c(O)cccc2c1C3c1ccc(-c2ccccc2)cc1 [BisN-4] | 410 °C | – | B (3% by weight or more and less than 10% by weight)
8 | Oc1ccc2c3c(ccc2c1)Oc1ccc2cc(O)ccc2c1C3c1cc2ccccc2c2ccccc12 [BisN-8] | 415 °C | – | B (3% by weight or more and less than 10% by weight)

More lines, main results first:

Row | pyrolysis temperature (Pyrolysis temperature) | solubility in PGME and PGMEA ([1]; 1-methoxy-2-propanol (PGME) and propylene glycol monomethyl ether acetate (PGMEA)) | SMILES | solubility in PGME and PGMEA (Evaluation) [1]
9 | 410 °C | ≥ 20 % by weight | Oc1ccc2c3c(ccc2c1)Oc1ccc2cc(O)ccc2c1C3c1ccc(-c2ccccc2)cc1 [BisN-1] | A (10% by weight or more)
10 | 415 °C | – | Oc1ccc2c3c(ccc2c1)Oc1ccc2cc(O)ccc2c1C3c1cccc2ccccc12 [BisN-7] | B (3% by weight or more and less than 10% by weight)
11 | 410 °C | – | Oc1ccc2ccc3c(c2c1)C(c1ccc(-c2ccccc2)cc1)c1c(ccc2ccc(O)cc12)O3 [BisN-2] | B (3% by weight or more and less than 10% by weight)
12 | 400 °C | – | Oc1ccc2c3c(ccc2c1)Oc1ccc2cc(O)ccc2c1C31CCCCC1 [BisN-10] | B (3% by weight or more and less than 10% by weight)
13 | 410 °C | – | Oc1ccc2ccc3c(c2c1)Oc1c(ccc2ccc(O)cc12)C3c1ccc(-c2ccccc2)cc1 [BisN-5] | B (3% by weight or more and less than 10% by weight)
14 | 450 °C | – | Oc1ccc2c3c(ccc2c1)Oc1ccc2cc(O)ccc2c1C31c2ccccc2-c2ccccc21 [BisN-11] | B (3% by weight or more and less than 10% by weight)
